Source: patent publication US20110305784A1, “Fractionated products obtained from gamboge resin, and medical uses of the same” (priority 2010, published 2011)
≈ marks a conversion by molar mass, not a printed value.

Key:
[1] = in vitro; details: human
Source text: (§1) The in vitro anti-cancer test was primarily used to detect the effect of a candidate drug on cancer cell proliferation. The working principle involved therein is the ability of viable cells to shift alamarBlue (AbD Serotec, UK) from its originally non-fluorescent oxidized state (non-fluorescent, blue) to a reduced form (fluorescent, red) having fluorescence via metabolic reaction. According to the fluorescent data result generated by the alamarBlue reagent thus obtained, the proliferation of the viable cells and cell activity can be quantified for detection.
(§2) In the in vitro anti-cancer tests, a candidate drug was tested at 5 different concentrations of 0.01, 0.1, 1, 10, and 100 μg/ml, and six human cancer cell lines and a normal human cell line were used (see Table 10).

[2] = system: Human breast adenocarcinoma cell MCF7; test: cells; details: for CC50: MCF7, read-out: LC50 (50% lethal concentration); for IC50: MCF7, read-out: IC50 (50% inhibition concentration)
Source text: as §1, §2

[3] = system: Human colon adenocarcinoma cell HT-29; test: cells; details: for CC50: HT-29, read-out: LC50 (50% lethal concentration); for IC50: HT-29, read-out: IC50 (50% inhibition concentration)
Source text: as §1, §2

[4] = system: Human hepatocellular carcinoma cell HepG2; test: cells; details: for CC50: HepG2, read-out: LC50 (50% lethal concentration); for IC50: HepG2, read-out: IC50 (50% inhibition concentration)
Source text: as §1, §2

[5] = system: Human histocytic lymphoma cell U937; test: cells; details: for CC50: U-937, read-out: LC50 (50% lethal concentration); for IC50: U-937, read-out: IC50 (50% inhibition concentration)
Source text: as §1, §2

[6] = system: Human lung carcinoma cell A549; test: cells; details: for CC50: A549, read-out: LC50 (50% lethal concentration); for IC50: A549, read-out: IC50 (50% inhibition concentration)
Source text: as §1, §2

[7] = system: Human promyelocytic leukemia cell HL-60; test: cells; details: for CC50: HL-60, read-out: LC50 (50% lethal concentration); for IC50: HL-60, read-out: IC50 (50% inhibition concentration)
Source text: as §1, §2

[8] = system: Human umbilical venal epithelial cell (HUVEC); test: cells; details: Homo sapiens, HUVEC, read-out: IC50 (50% inhibition concentration)
Source text: as §1, §2

Structure (SMILES)	CC50 [1]	CC50 [2]	CC50 [3]	CC50 [4]	CC50 [5]	CC50 [6]	CC50 [7]	IC50 [2]	IC50 [3]	IC50 [4]	IC50 [5]	IC50 [6]	IC50 [7]	IC50 [8]
CC(C)=CCC[C@@]1(C)C=Cc2c(O)c3c(c(CC(O)C(C)(C)O)c2O1)O[C@]12C(=C[C@@H]4CC1C(C)(C)OC2(C/C=C(/C)C(=O)O)C4=O)C3=O (some centres unmarked) [Gh-1036, epiformoxanthone F]	4.8 µg/mL (≈ 7.24 µM)	3.8 µg/mL (≈ 5.73 µM)	12 µg/mL (≈ 18.1 µM)	8.6 µg/mL (≈ 13 µM)	0.81 µg/mL (≈ 1.22 µM)	0.52 µg/mL (≈ 0.785 µM)	3.1 µg/mL (≈ 4.68 µM)							
C=C(C)C1CC[C@@]2(C)Oc3c(CC=C(C)C)c4c(c(O)c3[C@@H]1C2O)C(=O)C1=C[C@@H]2CC3C(C)(C)OC(C/C=C(/C)C(=O)O)(C2=O)[C@@]13O4 (stereo partly drawn) [Gh-1050, 3α-hydroxygambogellic acid]	3.4 µg/mL (≈ 5.27 µM)	1 µg/mL (≈ 1.55 µM)	7.7 µg/mL (≈ 11.9 µM)	3.8 µg/mL (≈ 5.89 µM)	2.3 µg/mL (≈ 3.57 µM)	0.74 µg/mL (≈ 1.15 µM)	7 µg/mL (≈ 10.9 µM)	0.14 µg/mL (≈ 0.217 µM)	4.8 µg/mL (≈ 7.44 µM)	1.1 µg/mL (≈ 1.71 µM)	0.21 µg/mL (≈ 0.326 µM)	0.13 µg/mL (≈ 0.202 µM)	0.17 µg/mL (≈ 0.264 µM)	0.78 µg/mL (≈ 1.21 µM)
CC(C)=CCC[C@]1(C)C=Cc2c(O)c3c(c(CC(O)C(C)(C)O)c2O1)O[C@]12C(=C[C@@H]4CC1C(C)(C)OC2(C/C=C(/C)C(=O)O)C4=O)C3=O (some centres unmarked) [Gh-1052, formoxanthone F]	3.1 µg/mL (≈ 4.68 µM)	2.4 µg/mL (≈ 3.62 µM)	5.7 µg/mL (≈ 8.6 µM)	4 µg/mL (≈ 6.04 µM)	0.69 µg/mL (≈ 1.04 µM)	2.5 µg/mL (≈ 3.77 µM)	3.4 µg/mL (≈ 5.13 µM)							
CC(C)=CCc1c2c(c(O)c3c1O[C@]14C(=C[C@@H]5CC1C(C)(C)OC4(C/C=C(/C)C(=O)O)C5=O)C3=O)C=C[C@@](C)(CCC(O)C(C)(C)O)O2 (some centres unmarked) [Gh-3261, formoxanthone J]	1.4 µg/mL (≈ 2.11 µM)	2.8 µg/mL (≈ 4.22 µM)	3.9 µg/mL (≈ 5.88 µM)	2.8 µg/mL (≈ 4.22 µM)	0.31 µg/mL (≈ 0.468 µM)	0.5 µg/mL (≈ 0.754 µM)	7 µg/mL (≈ 10.6 µM)							
CC(C)=CCc1c2c(c(O)c3c1O[C@]14C(=C[C@@H]5CC1C(C)(C)OC4(C/C=C(/C)C(=O)O)C5=O)C3=O)C=C[C@](C)(CCC(O)C(C)(C)O)O2 (some centres unmarked) [Gh-3271, epiformoxanthone J]	1.5 µg/mL (≈ 2.26 µM)	0.62 µg/mL (≈ 0.935 µM)	5.8 µg/mL (≈ 8.75 µM)	4.6 µg/mL (≈ 6.94 µM)	0.35 µg/mL (≈ 0.528 µM)	0.51 µg/mL (≈ 0.769 µM)	17.1 µg/mL (≈ 25.8 µM)							
CC(C)=CCc1c2c(c(O)c3c1O[C@]14C(=C[C@@H]5CC1C(C)(C)OC4(C/C=C(/C)C(=O)O)C5=O)C3=O)C=C[C@@](C)(C/C=C/C(C)(C)O)O2 [Gh-3272, formoxanthone H]	2.5 µg/mL (≈ 3.88 µM)	2.8 µg/mL (≈ 4.34 µM)	6.6 µg/mL (≈ 10.2 µM)	3.7 µg/mL (≈ 5.74 µM)	0.43 µg/mL (≈ 0.667 µM)	4.7 µg/mL (≈ 7.29 µM)	5.1 µg/mL (≈ 7.91 µM)	0.73 µg/mL (≈ 1.13 µM)	0.36 µg/mL (≈ 0.558 µM)	1.2 µg/mL (≈ 1.86 µM)	0.16 µg/mL (≈ 0.248 µM)	1.7 µg/mL (≈ 2.64 µM)	1.7 µg/mL (≈ 2.64 µM)	0.12 µg/mL (≈ 0.186 µM)
C=C(C)C(O)CC[C@]1(C)C=Cc2c(O)c3c(c(CC=C(C)C)c2O1)O[C@]12C(=C[C@@H]4CC1C(C)(C)OC2(C/C=C(/C)C(=O)O)C4=O)C3=O (some centres unmarked) [Gh-3291, formoxanthone D]	1.4 µg/mL (≈ 2.17 µM)	2.8 µg/mL (≈ 4.34 µM)	4.7 µg/mL (≈ 7.29 µM)	8.7 µg/mL (≈ 13.5 µM)	0.61 µg/mL (≈ 0.946 µM)	3.3 µg/mL (≈ 5.12 µM)	30 µg/mL (≈ 46.5 µM)	0.45 µg/mL (≈ 0.698 µM)	0.081 µg/mL (≈ 0.126 µM)	0.65 µg/mL (≈ 1.01 µM)	0.22 µg/mL (≈ 0.341 µM)	0.62 µg/mL (≈ 0.962 µM)	4.5 µg/mL (≈ 6.98 µM)	0.34 µg/mL (≈ 0.527 µM)
CC(C)=CCC[C@@]1(C)C=Cc2c(O)c3c(c(C(O)C4OC4(C)C)c2O1)O[C@]12C(=C[C@@H]4CC1C(C)(C)OC2(C/C=C(/C)C(=O)O)C4=O)C3=O (some centres unmarked) [Gh-3311, epiformoxanthone G]	13.9 µg/mL (≈ 21 µM)	14 µg/mL (≈ 21.2 µM)	38 µg/mL (≈ 57.5 µM)	25.6 µg/mL (≈ 38.7 µM)	5.4 µg/mL (≈ 8.17 µM)	21.2 µg/mL (≈ 32.1 µM)	2.2 µg/mL (≈ 3.33 µM)	8 µg/mL (≈ 12.1 µM)	7.9 µg/mL (≈ 12 µM)	7.9 µg/mL (≈ 12 µM)	1.9 µg/mL (≈ 2.88 µM)	5 µg/mL (≈ 7.57 µM)	1.4 µg/mL (≈ 2.12 µM)	4 µg/mL (≈ 6.05 µM)
CC(C)=CCc1c2c(c(O)c3c1O[C@]14C(=C[C@@H]5CC1C(C)(C)OC4(C/C=C(\C)C(=O)O)C5=O)C3=O)C=CC(C)(C/C=C\C(C)(C)O)O2 (some centres unmarked) [Gh-3332, isoformoxanthone I]	3.3 µg/mL (≈ 5.12 µM)	3.3 µg/mL (≈ 5.12 µM)	73.8 µg/mL (≈ 114 µM)	19.6 µg/mL (≈ 30.4 µM)	1.4 µg/mL (≈ 2.17 µM)	4.6 µg/mL (≈ 7.13 µM)	30.5 µg/mL (≈ 47.3 µM)	0.87 µg/mL (≈ 1.35 µM)	0.85 µg/mL (≈ 1.32 µM)	6.7 µg/mL (≈ 10.4 µM)	0.23 µg/mL (≈ 0.357 µM)	1.3 µg/mL (≈ 2.02 µM)	11.8 µg/mL (≈ 18.3 µM)	0.11 µg/mL (≈ 0.171 µM)
CC(C)=CCC[C@@]1(C)C=Cc2c(O)c3c(c(CC4OC4(C)C)c2O1)O[C@]12C(=C[C@@H]4CC1C(C)(C)OC2(C/C=C(/C)C(=O)O)C4=O)C3=O (some centres unmarked) [Gh-3351, epiformoxanthone E]	3.3 µg/mL (≈ 5.12 µM)	3.8 µg/mL (≈ 5.89 µM)	72.6 µg/mL (≈ 113 µM)	31.2 µg/mL (≈ 48.4 µM)	0.62 µg/mL (≈ 0.962 µM)	3.4 µg/mL (≈ 5.27 µM)	22.1 µg/mL (≈ 34.3 µM)	0.99 µg/mL (≈ 1.54 µM)	1.9 µg/mL (≈ 2.95 µM)	2.9 µg/mL (≈ 4.5 µM)	0.24 µg/mL (≈ 0.372 µM)	0.77 µg/mL (≈ 1.19 µM)	11.7 µg/mL (≈ 18.1 µM)	0.11 µg/mL (≈ 0.171 µM)
CC(C)=CCC[C@]1(C)C=Cc2c(O)c3c(c(CC4OC4(C)C)c2O1)O[C@]12C(=C[C@@H]4CC1C(C)(C)OC2(C/C=C(/C)C(=O)O)C4=O)C3=O (some centres unmarked) [Gh-3352, formoxanthone E]	0.85 µg/mL (≈ 1.32 µM)	1.8 µg/mL (≈ 2.79 µM)	0.68 µg/mL (≈ 1.05 µM)	2 µg/mL (≈ 3.1 µM)	0.26 µg/mL (≈ 0.403 µM)	0.99 µg/mL (≈ 1.54 µM)	0.93 µg/mL (≈ 1.44 µM)	0.075 µg/mL (≈ 0.116 µM)	0.18 µg/mL (≈ 0.279 µM)	0.16 µg/mL (≈ 0.248 µM)	0.11 µg/mL (≈ 0.171 µM)	0.18 µg/mL (≈ 0.279 µM)	0.26 µg/mL (≈ 0.403 µM)	0.084 µg/mL (≈ 0.13 µM)
CC(C)=CCC[C@]1(C)C=Cc2c(O)c3c(c(C(O)C4OC4(C)C)c2O1)O[C@]12C(=C[C@@H]4CC1C(C)(C)OC2(C/C=C(/C)C(=O)O)C4=O)C3=O (some centres unmarked) [Gh-3353, formoxanthone G]	8.4 µg/mL (≈ 12.7 µM)	9.6 µg/mL (≈ 14.5 µM)	20.8 µg/mL (≈ 31.5 µM)	35.5 µg/mL (≈ 53.7 µM)	14.6 µg/mL (≈ 22.1 µM)	8.2 µg/mL (≈ 12.4 µM)	2.4 µg/mL (≈ 3.63 µM)	2.4 µg/mL (≈ 3.63 µM)	5 µg/mL (≈ 7.57 µM)	5.3 µg/mL (≈ 8.02 µM)	4.8 µg/mL (≈ 7.26 µM)	2.6 µg/mL (≈ 3.93 µM)	1.3 µg/mL (≈ 1.97 µM)	5.5 µg/mL (≈ 8.32 µM)
